Data published in PubChem BioAssay (NCI).
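How tested: cells in 96-well plates exposed to compound for 48 hours at five concentrations. At the GI50, growth is halved. At the TGI there is no net growth.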

Legend:
Assay in all cases: NCI tumour cell line growth inhibition, 48 h
[1] = tested on: TK-10 renal
[2] = tested on: 786-0 renal
[3] = tested on: SF-539 CNS
[4] = tested on: M14 melanoma
[5] = tested on: NCI/ADR-RES ovarian
[6] = tested on: HS 578T breast
[7] = tested on: SF-295 CNS
[8] = tested on: OVCAR-8 ovarian
[9] = tested on: A498 renal

SMILES	TGI [1]	TGI [2]	TGI [3]	TGI [4]	TGI [5]	TGI [6]	TGI [7]	TGI [8]	TGI [9]	GI50 [1]	GI50 [3]	GI50 [4]	GI50 [5]	GI50 [6]	GI50 [7]	GI50 [8]
CC(C)CNC(=O)Cn1c(-c2ccccc2)cc2ccccc21	> 100 µM	> 100 µM	> 100 µM	> 100 µM	> 100 µM	> 100 µM	> 100 µM	> 100 µM								
Nc1cc(N2CCCC2)nc(=O)n1Cc1ccccc1	> 100 µM	> 100 µM	> 100 µM	> 100 µM	> 100 µM		> 100 µM	> 100 µM								
CCCCOCn1c(=O)[nH]c(=O)c2cc(Br)ccc21	> 100 µM	> 100 µM	> 100 µM	> 100 µM	40.3 µM		> 100 µM	88.6 µM	> 100 µM							
Cn1c2ccccc2c2c3c(c4c5ccccc5n(C)c4c21)C(=O)c1ccccc1C3=O	81.3 µM	31.7 µM	51.1 µM	> 100 µM	> 100 µM		> 100 µM	> 100 µM								
CC(C)(C)OC[C@H](O)CC#N	> 100 µM	> 100 µM	> 100 µM	> 100 µM		> 100 µM	> 100 µM	> 100 µM	> 100 µM							
COc1cc(/C=C2/N=C(c3ccccc3)N(C3=NNC4(C(=O)N3)c3ccccc3-c3ccccc34)NC2=O)ccc1O	78.2 mg/L		59.3 mg/L	105 mg/L	> 150 mg/L	42.5 mg/L	42.5 mg/L	45.5 mg/L		35.8 mg/L	28.7 mg/L	34.7 mg/L	45.8 mg/L	19.8 mg/L	19.7 mg/L	24 mg/L
COc1cc(C2SCC(=O)N2c2ccc(Oc3ccc(Cl)cc3)c(Cl)c2)cc(OC)c1OC (stereo not given)	33.9 µM	33.9 µM	54.2 µM	83.1 µM	30.4 µM	40.7 µM	34.6 µM	30.7 µM								
O=C(CNc1ccc(Cl)cc1Cl)NC1C=Cc2ccc(S(=O)(=O)Nc3ccc(Cl)cc3Cl)cc2C1=O (stereo not given)	> 100 µM	> 100 µM	> 100 µM	> 100 µM	> 100 µM	> 100 µM	> 100 µM	> 100 µM								
O=C1C(Br)=C(c2ccccc2)S(=O)c2ccccc21 (stereo not given)	32.2 µM	7.62 µM	12.9 µM	27 µM	> 100 µM	80.6 µM	34.6 µM	31.3 µM								
COC(=O)[C@@]12CCCC(=O)[C@@H]1[C@H]1CCCC[C@H]12	> 100 µM	> 100 µM	> 100 µM	> 100 µM	> 100 µM		> 100 µM	> 100 µM								
COc1c2cc(C(C)(C)C)cc1Cc1cccc(c1O)Cc1cc(C(C)(C)C)cc(c1OC)Cc1cccc(c1O)Cc1cc(C(C)(C)C)cc(c1OC)Cc1cccc(c1O)C2		> 100 µM	> 100 µM	> 100 µM	> 100 µM		> 100 µM	> 100 µM	> 100 µM							
COC(=O)C1(Cc2ccccc2)Cc2ccccc2C1	> 100 µM	81.9 µM	> 100 µM	34.8 µM	69.2 µM	> 100 µM	99.2 µM	> 100 µM								
NNC(=S)N1CCN(C(=S)NN)CC1		> 100 µM		> 100 µM		> 100 µM	> 100 µM		> 100 µM							
O=c1oc2ccc(Cl)cc2cc1-c1cn2cc(Cl)ccc2n1	> 100 µM	> 100 µM	> 100 µM	> 100 µM	> 85.9 µM	> 68.5 µM	> 100 µM	> 100 µM								
Cc1ccc(C(=O)/C(C#N)=C/Nc2c(C)n(C)n(-c3ccccc3)c2=O)cc1	> 100 µM	> 100 µM	> 100 µM	> 100 µM		> 100 µM	> 100 µM		> 100 µM							
COc1cc(S(=O)(=O)Nc2ccc(C3=NNC(c4ccccc4)C3)cc2)ccc1F (stereo not given)	54.7 µM		> 100 µM	> 100 µM	> 100 µM	77.8 µM	> 100 µM	> 100 µM		13.9 µM	40 µM	27.6 µM	36.3 µM	16.7 µM	28.5 µM	68.1 µM
CN(C)CCCOCCn1c2c(c3ccccc31)CCCC2	32.6 µM	28.9 µM	33.2 µM	32.1 µM	35.2 µM	51.6 µM	40.1 µM	35.9 µM								
COc1ccccc1Nc1nc(NNC(=O)Cc2ccccc2)nc(NNC(=O)c2ccncc2)n1	> 10 µM	> 10 µM	> 10 µM	> 10 µM	> 10 µM	> 10 µM		> 10 µM								
Clc1ccc(N=c2oc3ccccc3cc2-c2nc3ccccc3[nH]2)c(Cl)c1	69.9 µM			> 100 µM	> 100 µM	78.3 µM	> 100 µM	> 100 µM								
O=S1(=O)c2ccccc2NC(=S)CC1c1ccccc1 (stereo not given)	> 100 µM	> 100 µM		> 100 µM	> 100 µM	> 100 µM	79.8 µM	> 100 µM								
